The values below come from US8765683B2, “T-140 peptide analogs having CXCR4 super-agonist activity for cancer therapy” (Biokine Therapeutics Ltd., priority 2006, dated 2014).

In assay [1] the test system is PC3 cells. The assay can be described thus: MIP3α secretion by PC3 cells (ELISA). The assay is classed as cell-based. On the procedure: (§1) In this example, regulation of the chemokine MIP3α (macrophage inflammatory protein 3α) was examined. […] In FIG. 1B, PC3 (left panel) and PC3-CXCR4.5 (right panel) cells were stimulated with the indicated concentrations of CXCL12 for 48 hours and MIP3α secretion was assessed by ELISA. The results represent the average of triplicates±STDEV.
(§2) The effects of the CXCR4 antagonist AMD3100 and of 4F-benzoyl-TN14003 (4FB-TN14003), hitherto known as a CXCR4 antagonist, on MIP3α secretion were further tested. […] In FIG. 1C, CXCR4 signaling in PC3 (left panel) and PC3-CXCR4.5 (right panel) cells was inhibited with anti-CXCL12 antibodies (αCXCL12) and Pertussis toxin (PTX) treatments alone or in combination with CXCL12, as indicated. Secretion of MIP3α was assessed by ELISA. The results represent the average of triplicates±STDEV.

For assay [2], the system named is PC3-CXCR4.5 cells. The assay can be described thus: MIP3α secretion by PC3-CXCR4.5 cells (ELISA). The assay is classed as cell-based. On the procedure:
as §1, §2
For orientation: An ELISA detects its analyte on a solid surface through an enzyme-linked reagent.

Assay [3] deals with human primary keratinocytes. As to the kind of experiment: Proliferation and survival of keratinocytes. The assay is classed as cell-based. The settings on record: AMD-3100 20 μM; 4F-benzoyl-TN14003 4-20 μM. The protocol:
(§3) The effect of CXCR4 antagonists on the survival of freshly isolated normal CD4^+ T cells, CD34^+ stem cells and keratinocytes was examined. The proliferation and survival of keratinocytes was not inhibited by CXCR4 antagonists AMD-3100 (20 μM) and 4F-benzoyl-TN14003 (4-20 μM) or the natural ligand CXCL12 (FIG. 2C). The proliferation and survival of CD4^+ T cells was not inhibited by CXCR4 antagonists AMD-3100 (20 μM).

A further assay has as its system human CD4+ T cells. The assay can be described thus: Proliferation and survival of CD4+ T cells. Format: cell-based. The settings on record: AMD-3100 20 μM; 4F-benzoyl-TN14003 4-20 μM. The protocol:
as §3

Assay [4] deals with PC3 cells. As to the kind of experiment: Proliferation of PC3 prostate tumor cells. Format: cell-based. On the procedure: (§4) Next, the effect of the CXCR4 modulators on PC3 and PC3-CXCR4.5 prostate tumor cells was tested. […] The proliferation induced by 4F-benzoyl-TN14003 was dose-dependent (FIG. 3B).
The test system of assay [5] is PC3-CXCR4.5 cells. As to the kind of experiment: Proliferation of PC3-CXCR4.5 prostate tumor cells. The assay is classed as cell-based. The protocol: as §4
The next assay relates to SKBR3. As to the kind of experiment: Proliferation of SKBR3 breast carcinoma cells. The assay is classed as cell-based.
The next assay concerns 22Rv1. The assay can be described thus: Proliferation of 22Rv1 prostate carcinoma cells. Format: cell-based.
The next assay concerns U-87. The assay can be described thus: Proliferation of U-87 glioblastoma cells. The assay is classed as cell-based.
The next assay has as its system HL-60 cells. As to the kind of experiment: Proliferation and apoptosis (Annexin V) of HL-60 cells. The assay is classed as cell-based, human. The settings on record: AMD-3100 50 μM pretreatment.
The subject of the next assay is NB4 cells. The assay can be described thus: Proliferation of NB4 AML cells. The assay is classed as cell-based, human. The settings on record: NB4 cells.
Assay [6] has as its system human CD34+ hematopoietic stem cells. The settings on record: AMD-3100 20 μM.
Another assay deals with K562L cells. The assay can be described thus: K562L (luciferase) CML model, CCCD camera. The assay is classed as in vivo, NOD/SCID mice. On the procedure: In order to monitor the progression and localization of leukemic cells in vivo, the human CML tumor cell lines K562 (K562L) was stably transduced with a retrovirus carrying the luciferase gene. This cell line was injected IP into NOD/SCID mice (2.5×10^5, 5×10^5, 10^6, 2×10^6 per mouse; FIGS. 18 A-D, respectively) that were pretreated with a sub-lethal dose of radiation in order to diminish any natural killer cell activity and enhance acceptance of the tumor cells. Twenty-four hr after injection of the cells, the light generated internally by the luciferase expressed in the tumor cells and then transmitted through the animal's tissues was monitored externally using a cooled charge-coupled device camera (CCCD). The substrate luciferin was provided exogenously via IP injection. […] Quantitation was achieved by integrating the signal intensity using the Metaview software.
Two therapeutic approaches were studied using this model. […] In addition, the effect of 4F-benzoyl-TN14003 on the growth of cells in vivo was investigated.
Further, the effect of 4F-benzoyl-TN14003 on K562L tumor development was studied. 4F-benzoyl-TN14003 was injected i.p into NOD/SCID mice in the amount of 4 mg/Kg per mouse/per injection. The first injection of 4F-benzoyl-TN14003 was given immediately after the injection of K562-luc cells in an opposite route of injection on the peritoneum. Further injections of 4F-benzoyl-TN14003 were given every three days. Mice were monitored under the CCCD camera, 24 hr after each injection at serial time points, every three days.
4F-benzoyl-TN14003 was injected i.p into NOD/SCID mice in the amount of 2 mg/Kg whereas AMD-3100 was injected 4 mg/Kg per mouse/per injection. The first injection was given 2 days after the injection of K562-luc cells. Further injections were given on days 5, 7 and 11. Mice (n=3) were monitored under the CCCD camera on day 17 after injection of cells.

With Pertussis toxin, the results for the MIP3α secretion result in the assay with PC3 cells [1], in the assay on PC3-CXCR4.5 cells [2] (ELISA) and with PC3-CXCR4.5 cells [2] (PTX in combination with CXCL12) were “effectively inhibited the secretion of MIP3α”, “secretion of MIP3α was decreased” and “did not demonstrate an inhibitory effect”, respectively.

For the compound `c1cc(CN2CCCNCCNCCCNCC2)ccc1CN1CCCNCCNCCCNCC1` [AMD-3100, reference compound], the “proliferation and survival of keratinocytes” value in assay [3] is listed as “not inhibited”. In the assay on human CD4+ T cells, the “proliferation and survival of CD4+ T cells” value is given as “not inhibited”. Besides, the proliferation result is listed as “induced the proliferation of prostate cancer cells” with PC3 cells [4]; “induced the proliferation of prostate cancer cells” in the assay with PC3-CXCR4.5 cells [5]; “either stimulated or not affected” in the assay on SKBR3; “either stimulated or not affected” in the assay on 22Rv1; “either stimulated or not affected” with U-87. Besides, in the assay with HL-60 cells, the “effect of pretreatment with AMD-3100 on the effect of 4F-benzoyl-TN14003” value is given as “abolished the effect of 4F-benzoyl-TN14003”. Further, in the assay on NB4 cells, the “effect of pretreatment with AMD-3100 on the inhibitory effect of 4F-benzoyl-TN14003” value is “abolished”. The “CD34+ stem cell numbers” value in [6] was “did not affect cell numbers”.

On to “CXCL12: chemokine, CXCR4's only natural ligand”, for which the “proliferation and survival of keratinocytes” value in assay [3] was “not inhibited”. Further, the “proliferation and survival of CD4+ T cells” value in the assay with human CD4+ T cells is “induced T cell proliferation”. The proliferation entry was “induced the proliferation of prostate cancer cells” in the assay on PC3 cells [4]; “induced the proliferation of prostate cancer cells” in the assay with PC3-CXCR4.5 cells [5]; “either stimulated or not affected” in the assay with SKBR3; “either stimulated or not affected” in the assay on 22Rv1; “either stimulated or not affected” with U-87. Further, in assay [6], the “CD34+ stem cell numbers” value was “did not affect cell numbers”.

With `Cc1ccc(NC(=O)c2ccc(CN3CCN(C)CC3)cc2)cc1Nc1nccc(-c2cccnc2)n1` [STI571], the “tumor development of K562L cells” value in the assay with K562L cells (40 mg/Kg IP, FIG. 20) is recorded as “inhibit tumor development”. The “signal intensities over time” value in the assay with K562L cells (40 mg/Kg, FIG. 19) is given as “significant reduction in signal intensities”.
